The results in this text go back to patent US20240409585A1, “MACROCYCLIC IMMUNOMODULATORS” (priority 2021, published 2024).

Each structure is given as a SMILES string. Numbered stars: 1 amine (or outer) side, 2 acyl side, 3 side chain; on linkers, the order of the positions; unused ones are H or OH. Bridge positions count the residues as written; N and C are the ends. Square brackets hold non-standard residues; d marks the D form. Peptide text beside a SMILES is read from it. * marks the point of attachment. ξ: configuration not given here. Trp(7-Me) = Cc1cccc2c(C[C@H](N)C(=O)O)c[nH]c12; X27 = O=C([C@H](Cc1ccc2ncccc2c1)N[*:1])[*:2]; Phe(4-CH2NH2) = NCc1ccc(C[C@H](N)C(=O)O)cc1; Bip = N[C@@H](Cc1ccc(-c2ccccc2)cc1)C(=O)O; Phe(3-OMe) = COc1cccc(C[C@H](N)C(=O)O)c1; Phe(3-Me) = Cc1cccc(C[C@H](N)C(=O)O)c1; 3Pal = N[C@@H](Cc1cccnc1)C(=O)O; 4Pal = N[C@@H](Cc1ccncc1)C(=O)O; Cha = N[C@@H](CC1CCCCC1)C(=O)O; Cit = NC(=O)NCCC[C@H](N)C(=O)O; Ile(3ξ) = CCC(C)[C@H](N)C(=O)O; Thr(3ξ) = CC(O)[C@H](N)C(=O)O; Ahp(2) = CCCCC[C@H](N)C(=O)O; Carboxymethyl = O=C(O)C*; NMeA = CN[C@@H](C)C(=O)O; Dab = NCC[C@H](N)C(=O)O; Dap = NC[C@H](N)C(=O)O

The target in this assay is T1, PE-labeled human PD-L1-Ig binding to Jurkat cell line over-expressing human PD-1 (Jurkat-PD-1) (Homo sapiens, UniProt Q15116).
T1 construct: expressed in transfected cells; host or cells: Jurkat
As to the kind of experiment: Jurkat-PD-1 Cell Binding High-Content Screening Assay (CBA): Method 1. Conditions: Jurkat-hPD-1 cells, PE-labeled PD-L1-Ig 20 nM final; read-out: Jurkat HPDL1 PD1 IC50 (uM) (Method 1).

T1 sequence (Q15116 25-288): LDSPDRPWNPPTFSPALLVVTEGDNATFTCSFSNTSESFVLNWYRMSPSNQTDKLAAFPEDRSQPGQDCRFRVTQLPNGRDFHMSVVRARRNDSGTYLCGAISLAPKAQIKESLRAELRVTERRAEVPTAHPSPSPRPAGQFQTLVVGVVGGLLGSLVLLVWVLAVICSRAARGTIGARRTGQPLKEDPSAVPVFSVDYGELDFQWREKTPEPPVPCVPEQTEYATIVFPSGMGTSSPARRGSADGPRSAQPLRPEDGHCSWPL

`CC(C)C[C@@H]1NC(=O)[C@H](CCN)NC(=O)[C@@H](CC(C)C)NC(=O)[C@H](C)N(C)C(=O)[C@H](CCCNC(N)=O)NC(=O)[C@H](Cc2ccc(-c3ccccc3)cc2)NC(=O)[C@H](C(C)C)NC(=O)[C@H](Cc2c[nH]c3ccccc23)NC(=O)[C@H](CC(=O)O)NC(=O)[C@H](Cc2ccc(O)cc2)NC(=O)[C@H](CCN)NC(=O)CSC[C@@H](C(=O)N[C@@H](C)C(N)=O)NC(=O)[C@H]([C@@H](C)O)NC(=O)[C@H](C(C)C)NC1=O` [Compound 1346] ({CH2CO}-[Dab]YDWV[Bip][Cit][NMeA][dL][Dab]LVTCA-NH2; thioether N-14): the half-inhibitory concentration (IC50) was 0.07 µM.

In the case of `COc1cccc(C[C@@H]2NC(=O)[C@H](CC(=O)O)NC(=O)[C@H](Cc3ccc(OCC(=O)O)cc3)NC(=O)[C@H](CN)NC(=O)CSC[C@@H](C(=O)N[C@@H](C)C(N)=O)NC(=O)[C@H]([C@@H](C)O)NC(=O)[C@H](C(C)C)NC(=O)[C@H](CC(C)C)NC(=O)[C@H](CCN)NC(=O)[C@@H](CC(C)C)NC(=O)[C@H](C)N(C)C(=O)[C@H](CCCNC(N)=O)NC(=O)[C@H](Cc3ccc(-c4ccccc4)cc3)NC(=O)[C@H](C(C)C)NC2=O)c1` [Compound 1448] ({CH2CO}-[Dap]Y(Carboxymethyl)D[Phe(3-OMe)]V[Bip][Cit][NMeA][dL][Dab]LVTCA-NH2; thioether N-14), the half-inhibitory concentration (IC50) is 0.06 µM.

On to `CC(C)C[C@@H]1NC(=O)[C@H](CCCNC(=N)N)NC(=O)[C@@H](Cc2ccc(O)cc2)NC(=O)[C@H](C)N(C)C(=O)[C@H](CCCNC(=N)N)NC(=O)[C@H](Cc2ccc(-c3ccccc3)cc2)NC(=O)[C@H](C(C)C)NC(=O)[C@H](Cc2c[nH]c3ccccc23)NC(=O)[C@H](CC(=O)O)NC(=O)[C@H](Cc2ccc(O)cc2)NC(=O)[C@H](Cc2ccccc2)NC(=O)CSC[C@@H](C(=O)NCC(N)=O)NC(=O)[C@H](CO)NC(=O)[C@H](C(C)C)NC1=O` [Compound 1020] ({CH2CO}-FYDWV[Bip]R[NMeA][dY]RLVSCG-NH2; thioether N-14), for which the half-inhibitory concentration (IC50) turned out to be 0.07 µM.

`CC(C)C[C@H]1NC(=O)[C@H](C)N(C)C(=O)[C@H](CCCNC(N)=O)NC(=O)[C@H](Cc2ccc(-c3ccccc3)cc2)NC(=O)[C@H](C(C)C)NC(=O)[C@H](Cc2c[nH]c3ccccc23)NC(=O)[C@H](CC(=O)O)NC(=O)[C@H](Cc2ccc(O)cc2)NC(=O)[C@H](Cc2ccccc2)NC(=O)CSC[C@@H](C(=O)N[C@@H](C)C(N)=O)NC(=O)[C@H]([C@@H](C)O)NC(=O)[C@H](C(C)C)NC(=O)[C@H](CC2CCCCC2)NC(=O)[C@H](CCCNC(=N)N)NC1=O` [Compound 1505] ({CH2CO}-FYDWV[Bip][Cit][NMeA][dL]R[Cha]VTCA-NH2; thioether N-14): the IC50 was found to be 0.02 µM.

For the molecule `CC(C)C[C@@H]1NC(=O)[C@H](CCN)NC(=O)[C@@H](CC(C)C)NC(=O)[C@H](C)N(C)C(=O)[C@H](CCCNC(N)=O)NC(=O)[C@H](Cc2ccc(-c3ccccc3)cc2)NC(=O)[C@H](C(C)C)NC(=O)[C@H](Cc2c[nH]c3ccccc23)NC(=O)[C@H](CC(=O)O)NC(=O)[C@H](Cc2ccncc2)NC(=O)[C@H](Cc2cccnc2)NC(=O)CSC[C@@H](C(=O)N[C@@H](C)C(N)=O)NC(=O)[C@H]([C@@H](C)O)NC(=O)[C@H](C(C)C)NC1=O` [Compound 1333] ({CH2CO}-[3Pal][4Pal]DWV[Bip][Cit][NMeA][dL][Dab]LVTCA-NH2; thioether N-14), the IC50 was 0.02 µM.

With `CC(C)C[C@@H]1NC(=O)[C@H](Cc2c[nH]c3ccccc23)NC(=O)[C@H](CC(=O)O)NC(=O)[C@H](Cc2ccc(O)cc2)NC(=O)[C@H](Cc2ccccc2)NC(=O)CSC[C@@H](C(=O)N[C@@H](C)C(N)=O)NC(=O)[C@H]([C@@H](C)O)NC(=O)[C@H](C(C)C)NC(=O)[C@H](CC(C)C)NC(=O)[C@H](CC(N)=O)NC(=O)[C@@H](C)NC(=O)[C@H](C)N(C)C(=O)[C@H](C(C)C)NC(=O)[C@H](Cc2ccc(-c3ccccc3)cc2)NC1=O` [Compound 1744] ({CH2CO}-FYDWL[Bip]V[NMeA][dA]NLVTCA-NH2; thioether N-14), the IC50 was found to be 0.02 µM.

`CCC(C)[C@@H]1NC(=O)[C@H](Cc2ccc(-c3ccccc3)cc2)NC(=O)[C@H](C(C)C)NC(=O)[C@H](Cc2c[nH]c3ccccc23)NC(=O)[C@H](CC(=O)O)NC(=O)[C@H](Cc2ccc(O)cc2)NC(=O)[C@H](Cc2ccc(CN)cc2)NC(=O)CSC[C@@H](C(=O)N[C@@H](C)C(N)=O)NC(=O)[C@H](C(C)O)NC(=O)[C@H](C(C)C)NC(=O)[C@H](CC2CCCCC2)NC(=O)[C@H](CCN)NC(=O)[C@@H](CC(C)C)NC(=O)[C@H](C)N(C)C1=O` (stereo partly drawn) [Compound 2062] ({CH2CO}-[Phe(4-CH2NH2)]YDWV[Bip][Ile(3ξ)][NMeA][dL][Dab][Cha]V[Thr(3ξ)]CA-NH2; thioether N-14): the IC50 was determined as 0.02 µM.

As for `Cc1cccc(C[C@@H]2NC(=O)[C@H](CC(=O)O)NC(=O)[C@H](Cc3ccc(OCC(=O)O)cc3)NC(=O)[C@H](CC(N)=O)NC(=O)CSC[C@@H](C(N)=O)NC(=O)[C@H](CCC(=O)O)NC(=O)[C@H](C(C)C)NC(=O)[C@H](CC3CCCCC3)NC(=O)[C@H](CCN)NC(=O)[C@@H](CC(C)C)NC(=O)[C@H](C)N(C)C(=O)[C@H](Cc3ccc(OCC(=O)O)cc3)NC(=O)[C@H](Cc3ccc(-c4ccccc4)cc3)NC(=O)[C@H](Cc3ccc(OCC(=O)O)cc3)NC2=O)c1` [Compound 1667] ({CH2CO}-NY(Carboxymethyl)D[Phe(3-Me)]Y(Carboxymethyl)[Bip]Y(Carboxymethyl)[NMeA][dL][Dab][Cha]VEC-NH2; thioether N-14), the IC50 turned out to be 0.11 µM.

For the molecule `Cc1cccc2c(C[C@@H]3NC(=O)[C@H](CC(=O)O)NC(=O)[C@H](Cc4ccc(O)cc4)NC(=O)[C@H](Cc4ccccc4)NC(=O)CSC[C@@H](C(=O)N[C@@H](C)C(N)=O)NC(=O)[C@H]([C@@H](C)O)NC(=O)[C@H](C(C)C)NC(=O)[C@H](CC(C)C)NC(=O)[C@H](CCCNC(=N)N)NC(=O)[C@@H](CC(C)C)NC(=O)[C@H](C)N(C)C(=O)[C@H](CCCNC(=N)N)NC(=O)[C@H](Cc4ccc(-c5ccccc5)cc4)NC(=O)[C@H](C(C)C)NC3=O)c[nH]c12` [Compound 1097] ({CH2CO}-FYD[Trp(7-Me)]V[Bip]R[NMeA][dL]RLVTCA-NH2; thioether N-14), the IC50 amounted to 0.21 µM.

As for `CC(C)C[C@@H]1NC(=O)[C@H](CCCNC(=N)N)NC(=O)[C@@H](Cc2ccccc2)NC(=O)[C@H](C)N(C)C(=O)[C@H](CCCNC(=N)N)NC(=O)[C@H](Cc2ccc(-c3ccccc3)cc2)NC(=O)[C@H](C(C)C)NC(=O)[C@H](Cc2c[nH]c3ccccc23)NC(=O)[C@H](CC(=O)O)NC(=O)[C@H](Cc2ccc(O)cc2)NC(=O)[C@H](CC(N)=O)NC(=O)CSC[C@@H](C(=O)N[C@@H](C)C(N)=O)NC(=O)[C@H]([C@@H](C)O)NC(=O)[C@H](C(C)C)NC1=O` [Compound 1153] ({CH2CO}-NYDWV[Bip]R[NMeA][dF]RLVTCA-NH2; thioether N-14), the concentration for half-maximal inhibition (IC50) came out at 0.19 µM.

Consider `CCC(C)[C@@H]1NC(=O)[C@H](Cc2ccc(-c3ccccc3)cc2)NC(=O)[C@H](C(C)C)NC(=O)[C@H](Cc2c[nH]c3ccccc23)NC(=O)[C@H](CC(=O)O)NC(=O)[C@H](Cc2ccc(O)cc2)NC(=O)[C@H](Cc2ccc3ncccc3c2)NC(=O)CSC[C@@H](C(=O)N[C@@H](C)C(N)=O)NC(=O)[C@H](C(C)O)NC(=O)[C@H](C(C)C)NC(=O)[C@H](CC2CCCCC2)NC(=O)[C@H](CCN)NC(=O)[C@@H](CC(C)C)NC(=O)[C@H](C)N(C)C1=O` (stereo partly drawn) [Compound 2045] ({CH2CO}-[X27]YDWV[Bip][Ile(3ξ)][NMeA][dL][Dab][Cha]V[Thr(3ξ)]CA-NH2; thioether N-14), for which the 50% inhibitory concentration (IC50) worked out at 0.01 µM.

For `CC(C)C[C@@H]1NC(=O)[C@H](CCN)NC(=O)[C@@H](CC(C)C)NC(=O)[C@H](C)N(C)C(=O)[C@H](CCC(=O)O)NC(=O)[C@H](Cc2ccc(-c3ccccc3)cc2)NC(=O)[C@H](C(C)C)NC(=O)[C@H](Cc2c[nH]c3ccccc23)NC(=O)[C@H](CC(=O)O)NC(=O)[C@H](Cc2ccncc2)NC(=O)[C@H](CN)NC(=O)CSC[C@@H](C(=O)N[C@@H](C)C(N)=O)NC(=O)[C@H](CO)NC(=O)[C@H](C(C)C)NC1=O` [Compound 1576] ({CH2CO}-[Dap][4Pal]DWV[Bip]E[NMeA][dL][Dab]LVSCA-NH2; thioether N-14), the IC50 came to 0.11 µM.

`CC(C)C[C@@H]1NC(=O)[C@H](Cc2c[nH]c3ccccc23)NC(=O)[C@H](CC(=O)O)NC(=O)[C@H](Cc2ccc(OCC(=O)O)cc2)NC(=O)[C@H](C(C)O)NC(=O)CSC[C@@H](C(N)=O)NC(=O)[C@H](CO)NC(=O)[C@H](C(C)C)NC(=O)[C@H](CC2CCCCC2)NC(=O)[C@H](Cc2cnc[nH]2)NC(=O)[C@@H](CC(C)C)NC(=O)[C@H](C)N(C)C(=O)[C@H](C(C)C)NC(=O)[C@H](Cc2ccc(-c3ccccc3)cc2)NC1=O` (stereo partly drawn) [Compound 2253] ({CH2CO}-[Thr(3ξ)]Y(Carboxymethyl)DWL[Bip]V[NMeA][dL]H[Cha]VSC-NH2; thioether N-14): the IC50 worked out at 0.04 µM.

For the molecule `CC(C)C[C@@H]1NC(=O)[C@H](CCN)NC(=O)[C@@H](CC(C)C)NC(=O)[C@H](C)N(C)C(=O)[C@H](Cc2cnc[nH]2)NC(=O)[C@H](Cc2ccc(-c3ccccc3)cc2)NC(=O)[C@H](C(C)C)NC(=O)[C@H](Cc2c[nH]c3ccccc23)NC(=O)[C@H](CC(=O)O)NC(=O)[C@H](Cc2ccc(OCC(=O)O)cc2)NC(=O)[C@H](CN)NC(=O)CSC[C@@H](C(=O)N[C@@H](C)C(N)=O)NC(=O)[C@H]([C@@H](C)O)NC(=O)[C@H](C(C)C)NC1=O` [Compound 1438] ({CH2CO}-[Dap]Y(Carboxymethyl)DWV[Bip]H[NMeA][dL][Dab]LVTCA-NH2; thioether N-14), the IC50 amounted to 0.07 µM.

In the case of `CCCCC[C@@H]1NC(=O)[C@H](Cc2ccc(-c3ccccc3)cc2)NC(=O)[C@H](C(C)C)NC(=O)[C@H](Cc2c[nH]c3ccccc23)NC(=O)[C@H](CC(=O)O)NC(=O)[C@H](Cc2ccc(O)cc2)NC(=O)[C@H](CC(N)=O)NC(=O)CSC[C@@H](C(=O)N[C@@H](C)C(N)=O)NC(=O)[C@H](C(C)O)NC(=O)[C@H](C(C)C)NC(=O)[C@H](CC(C)C)NC(=O)[C@H](CCN)NC(=O)[C@@H](CC(C)C)NC(=O)[C@H](C)N(C)C1=O` (stereo partly drawn) [Compound 2083] ({CH2CO}-NYDWV[Bip][Ahp(2)][NMeA][dL][Dab]LV[Thr(3ξ)]CA-NH2; thioether N-14), the IC50 is 0.06 µM.

Usually IC50 stands for the concentration that inhibits the measured activity by half.
